Literature values in publication PMC12315921 (Translational Vision Science & Technology, 2025).
Read-outs that look alike come from different tables or passages of the source.

How the values were obtained:
PKM2 [1] = test system: PKM2
PKM2 [2] = test system: PKM2; remark: listed apart in the source

SMILES	AC50 of PK activation (PKM2 [1]; in the absence of FBP)	AC50 of PK activation (PKM2 [1]; in the presence of FBP)	AC50 (PKM2 [2])	Kd (PKM2 [2])
Nc1cccc(S(=O)(=O)N2CCCN(S(=O)(=O)c3ccc4c(c3)OCCO4)CC2)c1 [DASA-58]	micromolar	low nanomolar	–	–
O=C(COP(=O)(O)O)[C@@H](O)[C@H](O)[C@H](O)COP(=O)(O)O [FBP, fructose 1,6-biphosphate]	–	–	nanomolar range	nanomolar range
